Assay results: patent US20240352000A1, “NOVEL PYRIMIDINE-2,4-DIAMINE DERIVATIVES, PREPARATION METHOD THEREFOR, AND PHARMACEUTICAL COMPOSITION CONTAINING SAME AS ACTIVE INGREDIENT FOR PREVENTION OR TREATMENT OF CANCER” (KOREA RESEARCH INSTITUTE OF CHEMICAL TECHNOLOGY, priority 2021, published 2024)
pIC50: −log10 of the molar value.

How the values were obtained:
[1] = test system: Ba/F3 EGFR L858R/T790M/C797S; test: CellTiter-Glo cell viability, Ba/F3 EGFR L858R/T790M/C797S; assay type: cell-based; details: 72 hours
Method: (§1) An experiment to measure the activity of the compounds of the present invention against the mutant Ba/F3 EGFR cell line was performed as follows using the CellTiter-Glo system sold by Promega. The CellTiter-Glo assay is a method to confirm the cell viability by measuring ATP present in cells in cell culture. The Ba/F3 EGFR L858R, Ba/F3 EGFR L858R/T790M, Ba/F3 EGFR L858R/T790M/C797S mutant cell line was used. The Ba/F3 EGFR L858R, Ba/F3 EGFR L858R/T790M, and Ba/F3 EGFR L858R/T790M/C797S mutant cell lines was cultured in RPMI containing 10% FBS and 1% penicillin-streptomycin with 1 μg of puromycin in an incubator at 37° C. and 5% CO2.
(§2) Analysis of the inhibitory ability effect of the compounds against EGFR was conducted according to the following analysis reaction recipe.
(§3) 2500 cells/90 μl were passaged and cultured in a 96-well cell culture plate, and after 24 hours, treated with the compound represented by Formula 1 at a concentration of 0, 0.01, 0.03, 0.1, 0.3, 1, 3, and 10 (μM). After reaction for 72 hours, the plate treated with the compound was left at room temperature for 30 minutes, then further treated with 100 μl of reagent, and shaken at room temperature for 10 minutes. Finally, the ratio of fluorescence values at 570 nm was obtained using the equipment to quantitatively measure and confirmed the inhibitory ability of the compounds. The measurement values measured at eight compound concentrations were analyzed using the Prism program (version 5.01, Graphpad Software, Inc.), and the IC50 value, which is an indicator of the inhibitory ability of the compound, was calculated.

[2] = test system: Ba/F3 EGFR del19/T790M; test: CellTiter-Glo cell viability, Ba/F3 EGFR del19/T790M; assay type: cell-based; details: 72 hours
Method: (§4) An experiment to measure the activity of the compounds of the present invention against the mutant Ba/F3 EGFR cell line was performed as follows using the CellTiter-Glo system sold by Promega. The CellTiter-Glo assay is a method to confirm the cell viability by measuring ATP present in cells in cell culture. For the Ba/F3 EGFR del19, Ba/F3 EGFR del19/T790M, Ba/F3 del19/T790M/C797S mutant cell line, a cell line provided by Crown Bioscience was purchased and used. The Ba/F3 EGFR del19, Ba/F3 EGFR del19/T790M, Ba/F3 del19/T790M/C797S mutant cell line was cultured in RPMI containing 10% FBS and 1% penicillin-streptomycin with 1 μg of puromycin in an incubator at 37° C. and 5% CO2.
as §2
as §3, with “cells/90 μL” for “cells/90 μl”

[3] = target: EGFR del19/T790M (Homo sapiens (Human), UniProt P00533, DEL746-750/T790M); test: HTRF enzyme assay, EGFR del19/T790M mutant enzyme; assay type: biochemical; details: recombinant enzyme, 37° C. 2 hours
Method: (§5) An experiment to measure the activity of the compounds of the present invention against EGFR mutant enzymes was performed as follows using the HTRF system sold by Cisbio. For the EGFR del19/T790M mutant enzyme, a recombinant protein provided by Carna Biosciences was purchased and used, and for the EGFR del19/T790M/C797S mutant enzyme, a protein provided by SignalChem was purchased and used as an enzyme source.
(§6) The composition of the assay buffer used for measuring the activity was 50 mM Tris-HCl pH 7.5, 100 mM NaCl, 7.5 mM MgCl2, 3 mM KCl, 0.01% Tween 20, 0.1% BSA, and 1 mM DTT. Here, an enzyme reaction was performed using ATP at a concentration of […] and a peptide substrate labeled with biotin at a concentration of […]. Analysis of the inhibitory effect of the compounds against the EGFR activity was conducted according to the following analysis reaction recipe. • Component 1: 4 μL of an EGFR mutant enzyme • Component 2: 2 μL of a compound solution • Component 3: 4 μL of ATP and a peptide labeled with biotin
(§7) The enzyme reaction was started by first mixing Component 1 and Component 2 and then adding Component 3. After reaction at 37° C. for 2 hours, […] of measurement solution consisting of streptavidin-XL665 and europium-labeled anti-phosphotyrosine antibody provided by Cisbio was added to the enzyme reaction solution and reacted at room temperature for 1 hour. Finally, the ratio of fluorescence values at 615 nm and 665 nm was obtained using the Envision equipment from Perkin-Elmer to quantitatively measure the enzyme activity and confirmed the inhibitory ability of the compounds. The measurement values measured at seven compound concentrations were analyzed using the Prism program (version 5.01, Graphpad Software, Inc.), and the IC50 value, which is an indicator of the inhibitory ability of the compound, was calculated.

[4] = test system: Ba/F3 EGFR del19/T790M/C797S; test: CellTiter-Glo cell viability, Ba/F3 EGFR del19/T790M/C797S; assay type: cell-based; details: 72 hours
Method: as §4, §2
as §3, with “cells/90 μL” for “cells/90 μl”

[5] = test system: Ba/F3 EGFR del19; test: CellTiter-Glo cell viability, Ba/F3 EGFR del19; assay type: cell-based; details: 72 hours
Method: as §4, §2
as §3, with “cells/90 μL” for “cells/90 μl”

[6] = test system: Ba/F3 EGFR L858R; test: CellTiter-Glo cell viability, Ba/F3 EGFR L858R; assay type: cell-based; details: 72 hours
Method: as §1, §2, §3

[7] = test system: Ba/F3 EGFR L858R/T790M; test: CellTiter-Glo cell viability, Ba/F3 EGFR L858R/T790M; assay type: cell-based; details: 72 hours
Method: as §1, §2, §3

[8] = target: EGFR del19/T790M/C797S (Homo sapiens (Human), UniProt P00533, C797S/DEL746-750/T790M); test: HTRF enzyme assay, EGFR del19/T790M/C797S mutant enzyme; assay type: biochemical; details: enzyme from SignalChem, 37° C. 2 hours
Method: as §5, §6, §7

Chain of EGFR del19/T790M (P00533 other isoform, or with tags, fused parts or gaps T790M/del 1-668/del 746-750 limits assumed): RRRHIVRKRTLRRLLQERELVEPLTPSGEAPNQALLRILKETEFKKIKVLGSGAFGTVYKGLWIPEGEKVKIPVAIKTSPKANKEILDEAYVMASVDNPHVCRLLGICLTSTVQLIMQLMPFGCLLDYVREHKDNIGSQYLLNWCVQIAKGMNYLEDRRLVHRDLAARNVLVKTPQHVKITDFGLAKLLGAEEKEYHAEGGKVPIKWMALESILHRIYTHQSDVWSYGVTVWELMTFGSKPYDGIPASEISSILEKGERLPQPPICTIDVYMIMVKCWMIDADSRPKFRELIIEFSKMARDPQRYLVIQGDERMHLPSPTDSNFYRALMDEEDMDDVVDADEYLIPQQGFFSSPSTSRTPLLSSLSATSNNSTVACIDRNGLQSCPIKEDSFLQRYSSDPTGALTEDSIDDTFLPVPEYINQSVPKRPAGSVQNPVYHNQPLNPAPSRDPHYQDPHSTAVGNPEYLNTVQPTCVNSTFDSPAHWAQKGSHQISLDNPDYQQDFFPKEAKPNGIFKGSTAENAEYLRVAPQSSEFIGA
Chain of EGFR del19/T790M/C797S (P00533 other isoform, or with tags, fused parts or gaps T790M/C797S/del 1-694/del 746-750 limits assumed): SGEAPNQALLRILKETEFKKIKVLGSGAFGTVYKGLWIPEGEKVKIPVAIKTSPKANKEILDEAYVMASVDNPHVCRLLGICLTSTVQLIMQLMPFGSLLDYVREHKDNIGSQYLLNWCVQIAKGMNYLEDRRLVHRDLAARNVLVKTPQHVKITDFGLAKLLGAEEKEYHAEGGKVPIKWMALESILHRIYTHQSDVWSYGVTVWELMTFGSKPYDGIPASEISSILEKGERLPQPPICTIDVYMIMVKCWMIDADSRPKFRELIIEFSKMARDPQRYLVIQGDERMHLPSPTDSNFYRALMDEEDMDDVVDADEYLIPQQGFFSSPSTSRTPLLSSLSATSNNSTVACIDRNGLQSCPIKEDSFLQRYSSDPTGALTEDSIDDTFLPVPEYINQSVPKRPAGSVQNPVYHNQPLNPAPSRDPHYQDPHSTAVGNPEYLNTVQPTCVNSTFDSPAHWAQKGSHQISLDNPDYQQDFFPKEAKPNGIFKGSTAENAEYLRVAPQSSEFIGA

| SMILES | pIC50 [1] | pIC50 [2] | pIC50 [3] | pIC50 [4] | pIC50 [5] | pIC50 [6] | pIC50 [7] | pIC50 [8] |
| --- | --- | --- | --- | --- | --- | --- | --- | --- |
| COc1cc(N2CCC(N(C)C)CC2)ccc1Nc1ncc(Cl)c(Nc2cccc3c2N(S(C)(=O)=O)CC3)n1 [Example 1, 5-chloro-N2-(4-(4-(dimethylamino)piperidin-1-yl)-2-methoxyphenyl)-N4-(1-(methylsulfonyl)indolin-7-yl)pyrimidine-2,4-diamine] | > 7.00 | > 7.52 | > 9.00 | > 7.00 | > 7.52 | > 7.52 | > 7.52 | > 9.00 |
| COc1cc(N(C)CCN(C)C)ccc1Nc1ncc(Cl)c(Nc2cccc3c2N(S(C)(=O)=O)CC3)n1 [Example 3, 5-chloro-N2-(4-((2-(dimethylamino)ethyl)(methyl)amino)-2-methoxyphenyl)-N4-(1-(methylsulfonyl)indolin-7-yl)pyrimidine-2,4-diamine] | – | > 7.00 | – | < 7.00 | > 7.00 | < 7.00 | < 7.00 | – |
| COc1cc(N2CCC(N(C)C)CC2)ccc1Nc1ncc(Cl)c(Nc2cccc3c2N(S(C)(=O)=O)CCC3)n1 [Example 4, 5-chloro-N2-(4-(4-(dimethylamino)piperidin-1-yl)-2-methoxyphenyl)-N4-(1-(methylsulfonyl)-1,2,3,4-tetrahydroquinolin-8-yl)pyrimidine-2,4-diamine] | – | > 7.52 | > 9.00 | > 7.52 | > 7.52 | > 7.00 | > 7.00 | > 9.00 |
| COc1cc(N(C)CCN(C)C)ccc1Nc1ncc(Cl)c(Nc2cccc3c2N(S(C)(=O)=O)CCC3)n1 [Example 6, 5-chloro-N2-(4-((2-(dimethylamino)ethyl)(methyl)amino)-2-methoxyphenyl)-N4-(1-(methylsulfonyl)-1,2,3,4-tetrahydroquinolin-8-yl)pyrimidine-2,4-diamine] | – | > 7.00 | 9.00 | < 7.00 | > 7.00 | < 7.00 | > 7.00 | > 9.00 |
| COc1cc(N2CCC(N3CCN(C)CC3)CC2)ccc1Nc1ncc(C)c(Nc2cccc3c2N(S(C)(=O)=O)CC3)n1 [Example 7, N2-(2-methoxy-4-(4-(4-methylpiperazin-1-yl)piperidin-1-yl)phenyl)-5-methyl-N4-(1-(methylsulfonyl)indolin-7-yl)pyrimidine-2,4-diamine] | < 7.00 | > 7.00 | > 9.00 | < 7.00 | > 7.52 | > 7.52 | > 7.00 | > 9.00 |
| COc1cc(N2CCC(N3CCN(C)CC3)CC2)ccc1Nc1ncc(F)c(Nc2cccc3c2N(S(C)(=O)=O)CC3)n1 [Example 8, 5-fluoro-N2-(2-methoxy-4-(4-(4-methylpiperazin-1-yl)piperidin-1-yl)phenyl)-N4-(1-(methylsulfonyl)indolin-7-yl)pyrimidine-2,4-diamine] | < 7.00 | < 7.00 | > 9.00 | < 7.00 | > 7.00 | > 7.52 | > 7.00 | > 9.00 |
| COc1cc(N2CCC(N3CCN(C)CC3)CC2)ccc1Nc1ncc(C(F)(F)F)c(Nc2cccc3c2N(S(C)(=O)=O)CC3)n1 [Example 9, N2-(2-methoxy-4-(4-(4-methylpiperazin-1-yl)piperidin-1-yl)phenyl)-N4-(1-(methylsulfonyl)indolin-7-yl)-5-(trifluoromethyl)pyrimidine-2,4-diamine] | < 7.00 | > 7.52 | > 9.00 | < 7.00 | > 7.52 | > 7.00 | > 7.52 | > 9.00 |
| COc1cc(N2CCC(N3CCN(C)CC3)CC2)ccc1Nc1ncc(C(=O)OC(C)C)c(Nc2cccc3c2N(S(C)(=O)=O)CC3)n1 [Example 10, isopropyl 2-((2-methoxy-4-(4-(4-methylpiperazin-1-yl)piperidin-1-yl)phenyl)amino)-4-((1-(methylsulfonyl)indolin-7-yl)amino)pyrimidine-5-carboxylate] | < 7.00 | < 7.00 | 7.22 | < 7.00 | < 7.00 | > 7.00 | < 7.00 | 7.30 |
| COC(=O)c1cnc(Nc2ccc(N3CCC(N4CCN(C)CC4)CC3)cc2OC)nc1Nc1cccc2c1N(S(C)(=O)=O)CC2 [Example 11, methyl 2-((2-methoxy-4-(4-(4-methylpiperazin-1-yl)piperidin-1-yl)phenyl)amino)-4-((1-(methylsulfonyl)indolin-7-yl)amino)pyrimidine-5-carboxylate] | < 7.00 | < 7.00 | 8.70 | < 7.00 | > 7.00 | > 7.00 | > 7.00 | 8.30 |
